{
  "source": "patent US7776827B2",
  "about": "(ImmuneRegen Biosciences, Inc., priority 2007, dated 2010)",
  "format_in_all_cases": "cell-based",
  "key": {"[1]": {"tested_on": "CFU-Mk (platelet precursors)", "test": "Colony forming unit (CFU) assay, human bone marrow cells (Example 6)", "details": "in the presence of substance P", "text": "(§1) As stem cells differentiate in response to growth factors, they form a colony of cells with distinct morphologies that can be visualized using a microscope. This study examined the formation of three different progenitor cell populations, erythrocytes, platelets and granulocytes/macrophages.\n(§2) Bone marrow aspirates were obtained from three healthy donors between 18 and 35 years of age following appropriate guidelines and protocols. Bone marrow mononuclear cells were isolated using a Ficoll-Hypaque density gradient, separating red blood cells from the others. Cells from each donor were processed independently and used for setting up individual experiments to assess the effects, if any, of donor variability.\n(§3) Cells (1×10^5) were plated in duplicate onto 35 mm tissue culture plates for each condition tested and set up as described in Rameshwar et al. 1993, Blood. 81:2, 391-398. Erythroid and granulocyte/macrophage cultures were plated using methylcellulose and megakaryocyte cultures (platelet precursors) used a collagen-based support (StemCell Technologies, Vancouver, Canada, catalogue #04973). […] CP 99,994 (Pfizer) was used as a neurokinin-1 receptor antagonist and SR 48968 (Sanofi) was used as a neurokinin-2 receptor antagonist.\nCultures were set up with limited cytokines and growth factors which would promote differentiation of one progenitor per plate. […]"}, "[2]": {"tested_on": "human bone marrow-derived hematopoietic cell populations", "test": "CFC differentiation and ATP proliferation assays, overall statements (Example 4)", "description": "The compound was dissolved in 1 ml of Iscove's Modified Dulbecco's Medium (IMDM) and a serial dose response prepared in single log doses so that the final dose in culture ranged from 1 nM to 1×10^−16 M. All working dilutions were performed in IMDM.\nStarting with human bone marrow aspirate, the mononuclear cell (MNC) fraction was separated from the whole bone marrow using Ficoll-Paque density gradient centrifugation. […] The cell concentration was adjusted so that the final cell concentration in culture was 10,000 cells/well.\nHuman bone marrow MNC was dissolved in IMDM and cultured at a concentration of 10,000 cell/well in a CAMEO™-96 Master Mix (HemoGenix, Inc., Colorado Springs, Colo.). […]\nPrior to processing all 96-well plates, the total colony counts/well were manually enumerated by microscopy. The mean, standard deviation and percent coefficient of variation was calculated for all groups, transposed and plotted. The intracellular ATP (iATP) concentration was measured after manual enumeration. The output of the luminometer is non-standardized Relative Luminescence Units (RLU). […] This allowed the RLU values to be automatically calculated into standardized ATP (μM) units. For both the RLU and ATP values derived from each well, the luminometer software calculated the mean, standard deviation and percent coefficient of variation."}, "[3]": {"tested_on": "seven human-derived hematopoietic cell populations", "test": "CFC assay, three donors, overall statements (Example 5)", "details": "highest doses (1 nM)", "description": "Compound was dissolved in 1 ml of Iscove's Modified Dulbecco's Medium (IMDM) and a serial dose response was prepared in single log doses so that the final dose in culture ranged from 1 nanoMolar (nM) to 1×10^−16 M. All working dilutions were performed in IMDM. Cell cultures from each donor were started at different times and a fresh solution of HOMSPERA® was prepared for each individual experiment.\nStarting with human bone marrow aspirate, the mononuclear cell (MNC) fraction from each aspirate was separated from whole bone marrow using Ficoll-Paque density gradient centrifugation.\nThe colony-forming cell (CFC) assay was performed using optimal growth factor/cytokine concentrations. The reagents and conditions were similar to those used in Example 4, except that no ATP measurements were performed. The MNC fraction from each bone marrow donor was dissolved in IMDM and cultured at a concentration of 5,000 cells/well in a Culture Master Mix (HemoGenix, Inc., Colorado Springs, Colo.). […]\nThe mean, standard deviation and percent coefficient of variation was calculated for all groups, transposed and plotted as a function of donor. The percent from control values were calculated and also plotted as a function of donor. […]"}, "BFU-E": {"tested_on": "BFU-E", "test": "Colony forming unit (CFU) assay, human bone marrow cells (Example 6)", "details": "FIG. 1; control = zero level", "text": "as §1, §2\nas §3, with “antagonist. […]” for “antagonist.”"}, "CFU-E": {"tested_on": "CFU-E", "test": "Colony forming unit (CFU) assay, human bone marrow cells (Example 6)", "details": "FIG. 2; control = zero level", "text": "as §1, §2\nas §3, with “antagonist. […]” for “antagonist.”"}},
  "data": [
    {"molecule": "COc1ccccc1CN[C@H]1CCCN[C@H]1c1ccccc1", "note": "[CP-99,994]", "values": [
      {"measurement": "effect of receptor antagonist on substance P stimulation of platelet colony formation", "setting": "[1]", "value": "blocks the stimulatory activity of substance P"}
    ]},
    {"molecule": "CC(C)C[C@H](NC(=O)CN(C)C(=O)[C@H](Cc1ccccc1)NC(=O)[C@H](Cc1ccccc1)NC(=O)[C@H](CCC(N)=O)NC(=O)[C@H](CCC(N)=O)NC(=O)[C@@H]1CCCN1C(=O)[C@H](CCCCN)NC(=O)[C@@H]1CCCN1C(=O)[C@@H](N)CCCNC(=N)N)C(=O)N[C@@H](CCS(C)(=O)=O)C(N)=O", "note": "[HOMSPERA®]", "values": [
      {"measurement": "toxicity", "setting": "[2]; B-CFC and T-CFC, levels tested", "value": "do not demonstrate toxicity at the levels tested"},
      {"measurement": "cytotoxicity", "setting": "[2]; most of populations, 14 days, 1 nM to 1×10^−16 M", "value": "apparent absence of distinct cytotoxicity"},
      {"measurement": "toxicity", "setting": "[3]", "value": "no apparent toxicity at the highest doses"}
    ]},
    {"molecule": "CC(=O)NC1(c2ccccc2)CCN(CC[C@H](CN(C)C(=O)c2ccccc2)c2ccc(Cl)c(Cl)c2)CC1", "note": "[SR48968]", "values": [
      {"measurement": "effect of receptor antagonist on substance P stimulation of platelet colony formation", "setting": "[1]", "value": "showed no effect on substance P activity in enhancing platelet colony formation"}
    ]},
    {"molecule": "Arg Pro Lys Pro Gln Gln Phe Phe Gly Leu Met [substance P]", "values": [
      {"measurement": "BFU-E colony formation, increase from control values", "setting": "BFU-E", "value": "~60", "unit": "%"},
      {"measurement": "CFU-E colony formation, enhancement from control values", "setting": "CFU-E", "value": "about 70%"}
    ]}
  ]
}
